Species on record: Rattus norvegicus
Test: Open TG-GATES - Regimen: Daily Repeat
Assay type: toxicity, organism-based, Sprague-Dawley
Set-up: regimen Daily Repeat, gender Male, age 6 weeks
Settings: in vivo, po, route gavage; for APTT / Bas / Eos / Fbg / Hb / Ht / Lym / MCH / MCHC / MCV / Mono / Neu / Plat / RBC / Ret / WBC: tissue Blood; for KIDNEY_L / KIDNEY_R / KIDNEY_TOTAL: tissue Kidney; for ALP / ALT / AST / BUN / CRE / DBIL / GLC / IP / K / LDH / Na / PL / RALB / TBIL / TC / TG / TP / gamma-GTP: tissue Plasma
[1] = 30 mg/kg, 72 h, dose level Middle, time 3 day
[2] = 30 mg/kg, […], dose level Middle, time 7 day
[3] = 30 mg/kg, […], dose level Middle, time 14 day
[4] = 30 mg/kg, […], dose level Middle, time 28 day
[5] = 100 mg/kg, 72 h, dose level High, time 3 day
[6] = 100 mg/kg, […], dose level High, time 7 day
[7] = 100 mg/kg, […], dose level High, time 14 day
[8] = 100 mg/kg, […], dose level High, time 28 day

CN(C)CCC=C1c2ccccc2COc2ccccc21 [DOXEPIN]
TERMINAL_BW [1]: 221 g | APTT [1]: 16.8 s | Bas [1]: 0% | Eos [1]: 0.8% | Fbg [1]: 336.2 mg/dL | Hb [1]: 13 g/dL | Ht [1]: 37.8% | Lym [1]: 73.4% | MCH [1]: 21.6 pg | MCHC [1]: 34.4% | MCV [1]: 62.9 fL | Mono [1]: 2.8% | Neu [1]: 22.6% | Plat [1]: 113.6 x10_4/uL | RBC [1]: 600.6 x10_4/ul | Ret [1]: 6.9% | WBC [1]: 66.4 x10_2/uL | KIDNEY_L [1]: 1 g | KIDNEY_R [1]: 1 g | KIDNEY_TOTAL [1]: 2 g | ALP [1]: 1714.2 IU/L | ALT [1]: 50 IU/L | AST [1]: 75 IU/L | BUN [1]: 15 mg/dL | CRE [1]: 0.2 mg/dL | DBIL [1]: 0.018 mg/dL | GLC [1]: 193.6 mg/dL | IP [1]: 7.3 mg/dL | K [1]: 4.5 meq/L | LDH [1]: 94 IU/L | Na [1]: 142.2 meq/L | PL [1]: 147.6 mg/dL | RALB [1]: 2.7 g/dL | TBIL [1]: 0.032 mg/dL | TC [1]: 81.2 mg/dL | TG [1]: 97 mg/dL | TP [1]: 5.9 g/dL | gamma-GTP [1]: 1.2 IU/L | TERMINAL_BW [2]: 252.6 g | TERMINAL_BW [3]: 310 g | TERMINAL_BW [4]: 397.6 g | APTT [2]: 18.3 s | Bas [2]: 0% | Eos [2]: 1% | Fbg [2]: 293.4 mg/dL | Hb [2]: 13.4 g/dL | Ht [2]: 38.2% | Lym [2]: 81.4% | MCH [2]: 21.5 pg | MCHC [2]: 35.1% | MCV [2]: 61.2 fL | Mono [2]: 2.6% | Neu [2]: 14.4% | Plat [2]: 115.8 x10_4/uL | RBC [2]: 624.8 x10_4/ul | Ret [2]: 5.8% | WBC [2]: 90.6 x10_2/uL | APTT [3]: 16.2 s | Bas [3]: 0% | Eos [3]: 1% | Fbg [3]: 310.4 mg/dL | Hb [3]: 14 g/dL | Ht [3]: 40.7% | Lym [3]: 77.2% | MCH [3]: 20.9 pg | MCHC [3]: 34.5% | MCV [3]: 60.6 fL | Mono [3]: 2.4% | Neu [3]: 18.8% | Plat [3]: 101.5 x10_4/uL | RBC [3]: 671.4 x10_4/ul | Ret [3]: 4.6% | WBC [3]: 80.3 x10_2/uL | APTT [4]: 18 s | Bas [4]: 0% | Eos [4]: 1.4% | Fbg [4]: 282 mg/dL | Hb [4]: 14.9 g/dL | Ht [4]: 42% | Lym [4]: 79% | MCH [4]: 19.7 pg | MCHC [4]: 35.4% | MCV [4]: 55.8 fL | Mono [4]: 2.6% | Neu [4]: 16.4% | Plat [4]: 112.2 x10_4/uL | RBC [4]: 754.2 x10_4/ul | Ret [4]: 2.4% | WBC [4]: 93.4 x10_2/uL | KIDNEY_L [2]: 1 g | KIDNEY_R [2]: 1 g | KIDNEY_TOTAL [2]: 2.1 g | KIDNEY_L [3]: 1.2 g | KIDNEY_R [3]: 1.2 g | KIDNEY_TOTAL [3]: 2.4 g | KIDNEY_L [4]: 1.4 g | KIDNEY_R [4]: 1.3 g | KIDNEY_TOTAL [4]: 2.7 g | ALP [2]: 1770.4 IU/L | ALT [2]: 48 IU/L | AST [2]: 72.6 IU/L | BUN [2]: 17.4 mg/dL | CRE [2]: 0.2 mg/dL | DBIL [2]: 0.018 mg/dL | GLC [2]: 191.2 mg/dL | IP [2]: 7.2 mg/dL | K [2]: 4.3 meq/L | LDH [2]: 76.2 IU/L | Na [2]: 142 meq/L | PL [2]: 145.4 mg/dL | RALB [2]: 2.7 g/dL | TBIL [2]: 0.034 mg/dL | TC [2]: 75.8 mg/dL | TG [2]: 106.4 mg/dL | TP [2]: 5.7 g/dL | gamma-GTP [2]: 1.4 IU/L | ALP [3]: 1433.6 IU/L | ALT [3]: 42.8 IU/L | AST [3]: 69 IU/L | BUN [3]: 18.8 mg/dL | CRE [3]: 0.2 mg/dL | DBIL [3]: 0.014 mg/dL | GLC [3]: 191.4 mg/dL | IP [3]: 6.8 mg/dL | K [3]: 4.1 meq/L | LDH [3]: 69.6 IU/L | Na [3]: 142.8 meq/L | PL [3]: 148.6 mg/dL | RALB [3]: 2.7 g/dL | TBIL [3]: 0.026 mg/dL | TC [3]: 71.4 mg/dL | TG [3]: 153.8 mg/dL | TP [3]: 6 g/dL | gamma-GTP [3]: 1 IU/L | ALP [4]: 1369.6 IU/L | ALT [4]: 43.6 IU/L | AST [4]: 67.2 IU/L | CRE [4]: 0.2 mg/dL | DBIL [4]: 0.022 mg/dL | GLC [4]: 185 mg/dL | IP [4]: 6.1 mg/dL | K [4]: 4.1 meq/L | LDH [4]: 81.4 IU/L | Na [4]: 143.6 meq/L | PL [4]: 140.6 mg/dL | RALB [4]: 2.8 g/dL | TBIL [4]: 0.034 mg/dL | TC [4]: 66 mg/dL | TG [4]: 166.4 mg/dL | TP [4]: 6.2 g/dL | gamma-GTP [4]: 1.4 IU/L | TERMINAL_BW [5]: 208.5 g | APTT [5]: 18.1 s | Bas [5]: 0% | Eos [5]: 1.2% | Fbg [5]: 285 mg/dL | Hb [5]: 13.6 g/dL | Ht [5]: 39.2% | Lym [5]: 78% | MCH [5]: 21.3 pg | MCHC [5]: 34.7% | MCV [5]: 61.5 fL | Mono [5]: 3.2% | Neu [5]: 17.2% | Plat [5]: 113.2 x10_4/uL | RBC [5]: 637.4 x10_4/ul | Ret [5]: 6.3% | WBC [5]: 77.5 x10_2/uL | KIDNEY_L [5]: 0.9 g | KIDNEY_R [5]: 0.9 g | KIDNEY_TOTAL [5]: 1.8 g | ALP [5]: 1907.8 IU/L | ALT [5]: 51 IU/L | AST [5]: 75.4 IU/L | BUN [5]: 16.6 mg/dL | CRE [5]: 0.2 mg/dL | DBIL [5]: 0.014 mg/dL | GLC [5]: 196.2 mg/dL | IP [5]: 8.4 mg/dL | K [5]: 4.2 meq/L | LDH [5]: 86 IU/L | Na [5]: 142.6 meq/L | PL [5]: 145.2 mg/dL | RALB [5]: 2.7 g/dL | TBIL [5]: 0.038 mg/dL | TC [5]: 85.4 mg/dL | TG [5]: 58.2 mg/dL | TP [5]: 5.7 g/dL | gamma-GTP [5]: 1.2 IU/L | TERMINAL_BW [6]: 235 g | TERMINAL_BW [7]: 276.3 g | TERMINAL_BW [8]: 344.8 g | APTT [6]: 16.4 s | Bas [6]: 0% | Eos [6]: 1.2% | Fbg [6]: 311.4 mg/dL | Hb [6]: 14 g/dL | Ht [6]: 40.1% | Lym [6]: 75.6% | MCH [6]: 21.1 pg | MCHC [6]: 34.9% | MCV [6]: 60.4 fL | Mono [6]: 2.8% | Neu [6]: 20.2% | Plat [6]: 106.3 x10_4/uL | RBC [6]: 665.6 x10_4/ul | Ret [6]: 5.1% | WBC [6]: 94.7 x10_2/uL | APTT [7]: 17.9 s | Bas [7]: 0% | Eos [7]: 1% | Fbg [7]: 284.2 mg/dL | Hb [7]: 14.7 g/dL | Ht [7]: 42.7% | Lym [7]: 77.6% | MCH [7]: 20.2 pg | MCHC [7]: 34.6% | MCV [7]: 58.4 fL | Mono [7]: 3.2% | Neu [7]: 17.6% | Plat [7]: 101.4 x10_4/uL | RBC [7]: 731 x10_4/ul | Ret [7]: 3.8% | WBC [7]: 106 x10_2/uL | APTT [8]: 20.2 s | Bas [8]: 0% | Eos [8]: 1.2% | Fbg [8]: 290.6 mg/dL | Hb [8]: 16.2 g/dL | Ht [8]: 45.8% | Lym [8]: 78.8% | MCH [8]: 19.9 pg | MCHC [8]: 35.4% | MCV [8]: 56.2 fL | Mono [8]: 1.8% | Neu [8]: 17.8% | Plat [8]: 100.9 x10_4/uL | RBC [8]: 815.6 x10_4/ul | Ret [8]: 2.3% | WBC [8]: 90.5 x10_2/uL | KIDNEY_L [6]: 1 g | KIDNEY_R [6]: 1 g | KIDNEY_TOTAL [6]: 2 g | KIDNEY_L [7]: 1.1 g | KIDNEY_R [7]: 1.1 g | KIDNEY_TOTAL [7]: 2.2 g | KIDNEY_L [8]: 1.3 g | KIDNEY_R [8]: 1.3 g | KIDNEY_TOTAL [8]: 2.6 g | ALP [6]: 1566.6 IU/L | ALT [6]: 44.8 IU/L | AST [6]: 72.4 IU/L | BUN [6]: 17.4 mg/dL | CRE [6]: 0.2 mg/dL | DBIL [6]: 0.018 mg/dL | GLC [6]: 193 mg/dL | IP [6]: 7.9 mg/dL | K [6]: 4.1 meq/L | LDH [6]: 88.8 IU/L | Na [6]: 142 meq/L | PL [6]: 145 mg/dL | RALB [6]: 2.8 g/dL | TBIL [6]: 0.036 mg/dL | TC [6]: 77 mg/dL | TG [6]: 116.8 mg/dL | TP [6]: 6 g/dL | gamma-GTP [6]: 1.8 IU/L | ALP [7]: 1470 IU/L | ALT [7]: 46.2 IU/L | AST [7]: 71.4 IU/L | BUN [7]: 17.8 mg/dL | CRE [7]: 0.2 mg/dL | DBIL [7]: 0.012 mg/dL | GLC [7]: 179.8 mg/dL | IP [7]: 8.1 mg/dL | K [7]: 4.3 meq/L | LDH [7]: 53.8 IU/L | Na [7]: 142.8 meq/L | PL [7]: 141.6 mg/dL | RALB [7]: 2.7 g/dL | TBIL [7]: 0.022 mg/dL | TC [7]: 76 mg/dL | TG [7]: 106.6 mg/dL | TP [7]: 6 g/dL | gamma-GTP [7]: 1.2 IU/L | ALP [8]: 1314.6 IU/L | ALT [8]: 46.8 IU/L | AST [8]: 68.6 IU/L | BUN [8]: 17.2 mg/dL | CRE [8]: 0.2 mg/dL | DBIL [8]: 0.018 mg/dL | GLC [8]: 181 mg/dL | IP [8]: 6.6 mg/dL | K [8]: 4.1 meq/L | LDH [8]: 83.4 IU/L | Na [8]: 144.2 meq/L | PL [8]: 139.6 mg/dL | RALB [8]: 3 g/dL | TBIL [8]: 0.028 mg/dL | TC [8]: 79.2 mg/dL | TG [8]: 74.6 mg/dL | TP [8]: 6.4 g/dL | gamma-GTP [8]: 1 IU/L

— ChEMBL document CHEMBL3885861, “Open TG-GATES”
